Earlier results in paper PMC11761228, “Cinnamic Acid Compounds (p-Coumaric, Ferulic, and p-Methoxycinnamic Acid) as Effective Antibacterial Agents Against Colistin-Resistant Acinetobacter baumannii” (Antibiotics, 2025).
Converted amounts (≈) assume the structure as drawn.

Legend:
[1] = test system: Salmonella typhimurium; design: method as in ref 35 (Lou et al., 2012); settings: ref 35 (Lou et al., 2012); cited from earlier work
[2] = test system: HUVEC-originated ECV304 cells; settings: ref 72 (Kong et al.); cited from earlier work
[3] = test system: Micrococcus luteus; design: method as in ref 29 (Nakazono et al., 2006); settings: ref 29 (Nakazono et al., 2006); cited from earlier work

Row | Structure (SMILES) | MIC [1] | Concentration shown to induce cytotoxicity [2] | Concentrations with no significant effects on the cell viability [2] | MIC [3]
1 | O=C(O)/C=C/c1ccc(O)cc1 [p-CA, p-coumaric acid] | 20 µg/mL (≈ 122 µM) | 5000 µM | ≤ 2500 µM | 
2 | COc1ccc(C=CC(=O)O)cc1 [p-MCA, p-methoxycinnamic acid] |  |  |  | 80 µg/mL (≈ 449 µM)
